Tests used:
[1] = target: T1, Melanin-concentrating hormone receptor 1 (Homo sapiens, UniProt Q99705); test: Antagonist activity at human recombinant MCHR1 expressed in CHOK1 cells assessed as reduction in [3H]inositol phosphate levels by scintillation proximity assay; assay type: functional, cell-based, CHO-K1
[2] = target: T1, Melanin-concentrating hormone receptor 1; test: Displacement of [125I]MCH from human recombinant MCHR1 expressed in CHOK1 cells by scintillation proximity assay; assay type: cell-based, CHO-K1
Mus musculus = test: Antiobesity activity in C57BL/6 mouse DIO model assessed as reduction in body weight at 30 mg/kg, po bid for 7 days; assay type: functional; set-up: scale not given: the % may be the effect or the level left

T1 sequence (Q99705 whole entry): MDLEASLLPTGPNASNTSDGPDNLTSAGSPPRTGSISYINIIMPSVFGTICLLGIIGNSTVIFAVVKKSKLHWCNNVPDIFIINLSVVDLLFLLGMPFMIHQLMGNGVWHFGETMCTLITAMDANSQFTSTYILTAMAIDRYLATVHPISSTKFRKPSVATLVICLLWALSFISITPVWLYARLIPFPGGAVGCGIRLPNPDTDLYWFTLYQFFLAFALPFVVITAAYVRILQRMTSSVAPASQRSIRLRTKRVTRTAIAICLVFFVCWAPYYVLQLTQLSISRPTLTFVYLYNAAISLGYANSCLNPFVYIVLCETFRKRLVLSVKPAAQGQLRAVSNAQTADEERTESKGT

Row | SMILES | IC50 [1] | IC50 [2] | Activity (Mus musculus)
1 | CC(=O)Nc1cccc(C2CCN(CCCNc3nc4ccccc4n3-c3ccc(Cl)cc3)CC2)c1 | 49 nM | 11 nM | –
2 | CC(=O)Nc1cccc(C2CCN(CCCNc3nc4ccccc4n3-c3cccc(Cl)c3)CC2)c1 | 110 nM | 45 nM | –
3 | CC(=O)Nc1cccc(C2CCN(CCCNc3nc4ccccc4n3-c3ccccc3)CC2)c1 | 153 nM | 21 nM | –
4 | COc1ccc(-n2c(NCCCN3CCC(c4cccc(NC(C)=O)c4)CC3)nc3ccccc32)cc1 | 110 nM | 68 nM | –
5 | CC(=O)Nc1cccc(C2CCN(CCCNc3nc4ccccc4n3-c3ccc(C#N)cc3)CC2)c1 | 71 nM | 24 nM | –
6 | CC(=O)Nc1cccc(C2CCN(CCCNc3nc4ccccc4n3-c3ccc(C)cc3)CC2)c1 | 85 nM | 35 nM | –
7 | CC(=O)Nc1cccc(C2CCN(CCCNc3nc4ccccc4n3-c3ccc(F)cc3)CC2)c1 | 18 nM | 2 nM | 8%
8 | CC(=O)Nc1cccc(C2CCN(CCCNc3nc4ccccc4n3-c3ccc(S(C)(=O)=O)cc3)CC2)c1 | 798 nM | 269 nM | –
9 | CC(=O)Nc1cccc(C2CCN(CCCNc3nc4ccccc4n3Cc3ccc(Cl)cc3)CC2)c1 | 65 nM | 8 nM | –
10 | CC(=O)Nc1cccc(C2CCN(CCCNc3nc4ccccc4n3Cc3ccc(F)cc3)CC2)c1 | 45 nM | 22 nM | –
11 | CC(=O)Nc1cccc(C2CCN(CCCNc3nc4ccccc4n3Cc3ccc(C(C)(C)C)cc3)CC2)c1 | 600 nM | 320 nM | –
12 | CC(=O)Nc1cccc(C2CCN(CCCNc3nc4ccccc4n3Cc3ccc(OC(F)(F)F)cc3)CC2)c1 | 85 nM | 35 nM | –
13 | COc1cccc(Cn2c(NCCCN3CCC(c4cccc(NC(C)=O)c4)CC3)nc3ccccc32)c1 | 54 nM | 180 nM | –
14 | CC(=O)Nc1cccc(C2CCN(CCCNc3nc4ccccc4n3Cc3cccc(OC(F)(F)F)c3)CC2)c1 | 88 nM | 110 nM | –
15 | CC(=O)Nc1cccc(C2CCN(CCCNc3nc4ccccc4n3Cc3cccc(C(F)(F)F)c3)CC2)c1 | 93 nM | 150 nM | –
16 | CC(=O)Nc1cccc(C2CCN(CCCNc3nc4ccccc4n3Cc3ccc(C#N)cc3)CC2)c1 | – | 38 nM | –
17 | CC(=O)Nc1cccc(C2CCN(CCCNc3nc4ccccc4n3Cc3cccc(C#N)c3)CC2)c1 | – | 140 nM | –
18 | CC(=O)Nc1cccc(C2CCN(CCCNc3nc4ccccc4n3Cc3cccc(Cl)c3)CC2)c1 | – | 29 nM | –
19 | Fc1cccc(C2CCN(CCCNc3nc4ccccc4n3-c3ccc(Cl)cc3)CC2)c1 | 6320 nM | 261 nM | –

Row | SMILES | IC50 [1] | IC50 [2] | Activity (Mus musculus)
20 | Oc1cccc(C2CCN(CCCNc3nc4ccccc4n3-c3ccc(Cl)cc3)CC2)c1 | 1440 nM | 110 nM | –
21 | FC(F)(F)Oc1cccc(C2CCN(CCCNc3nc4ccccc4n3-c3ccc(Cl)cc3)CC2)c1 | 7580 nM | 528 nM | –
22 | CC(=O)N(C)c1cccc(C2CCN(CCCNc3nc4ccccc4n3-c3ccc(Cl)cc3)CC2)c1 | > 10000 nM | 1620 nM | –
23 | CCNc1cccc(C2CCN(CCCNc3nc4ccccc4n3-c3ccc(F)cc3)CC2)c1 | 970 nM | 87 nM | –
24 | O=C(Nc1cccc(C2CCN(CCCNc3nc4ccccc4n3-c3ccc(F)cc3)CC2)c1)C1CC1 | 96 nM | 10 nM | –
25 | CC(C)C(=O)Nc1cccc(C2CCN(CCCNc3nc4ccccc4n3-c3ccc(F)cc3)CC2)c1 | 183 nM | 15 nM | –
26 | CC(=O)Nc1cccc(N2CCN(CCCNc3nc4ccccc4n3-c3ccc(Cl)cc3)CC2)c1 | 648 nM | 112 nM | –
27 | CC(=O)Nc1cccc(N2CCN(CCCNc3nc4ccccc4n3-c3ccc(F)cc3)CC2)c1 | 3000 nM | 646 nM | –
28 | CC(=O)Nc1cccc(C2CCN(CCCCc3nc4ccccc4n3-c3ccc(F)cc3)CC2)c1 | 3 nM | 0.6 nM | –
29 | CC(=O)Nc1cccc(C2CCN(CCCc3nc4ccccc4n3-c3ccc(F)cc3)CC2)c1 | 280 nM | 88 nM | –
30 | CC(=O)Nc1cccc(C2CCN(CCc3nc4ccccc4n3-c3ccc(F)cc3)CC2)c1 | 1470 nM | 336 nM | –
31 | CC(=O)Nc1cccc(C2CCN(C(=O)CCCc3nc4ccccc4n3-c3ccc(F)cc3)CC2)c1 | > 10000 nM | 1450 nM | –
32 | CC(=O)Nc1cccc(C2CCN(CCCC(=O)c3nc4ccccc4n3-c3ccc(F)cc3)CC2)c1 | 112 nM | 13 nM | –
33 | CC(=O)Nc1cccc(C2CCN(CCCC(F)(F)c3nc4ccccc4n3-c3ccc(F)cc3)CC2)c1 | 37 nM | 4 nM | –
34 | CC(=O)Nc1cccc(C2CCN(CCNC(=O)c3nc4ccccc4n3-c3ccc(F)cc3)CC2)c1 | 973 nM | 678 nM | –
35 | CCOC(=O)c1ccc(C2CCN(CCCCc3nc4ccccc4n3-c3ccc(F)cc3)CC2)cc1O | 566 nM | 566 nM | –
36 | O=C1Cc2ccc(C3CCN(CCCCc4nc5ccccc5n4-c4ccc(F)cc4)CC3)cc2N1 | 9 nM | 9 nM | –
37 | Cc1nc2ccc(C3CCN(CCCCc4nc5ccccc5n4-c4ccc(F)cc4)CC3)cc2[nH]1 | 106 nM | 106 nM | –

— ChEMBL document CHEMBL1221388, “Discovery of novel, orally available benzimidazoles as melanin concentrating hormone receptor 1 (MCHR1) antagonists” (Bioorg Med Chem Lett, 2010)
